Patent US20220218679A1, “NOVEL COMPOUNDS AND PHARMACEUTICAL COMPOSITIONS THEREOF FOR THE TREATMENT OF INFLAMMATORY DISORDERS” (Galapagos NV, priority 2019, published 2022)
Where two headings read alike, the source gives them in different places.

Tests used:
THP-1-Lucia NFκB cells = assay: THP1-Lucia NFκB reporter assay (LPS, IL-1β, TNFα triggering); assay type: cell-based; settings: for EC50: 24 h incubation
Text: This assay was used to evaluate the IRAK4 selectivity and potency of the compounds of the invention upon IRAK4 dependent (LPS and IL-1β) and independent triggering (TNFα), in a THP1-Lucia NFκB reporter assay.
THP-1-Lucia NFκB cells (Invivogen—5, rue Jean Rodier 31400 Toulouse France—cat #thp1-nfkb) were cultivated as recommended by the supplier using split cycles each cycle comprising a succession of thawing/expansion/seeding. The data reported were generated using cells having between 3 to 9 cycles. On the day of the experiment THP-1-Lucia NFκB cells were counted and seeded at a density of 1,000,000 cells/mL in culture medium (RPMI 1640 (Gibco, Cat #52400-025)+10% FBS (Sigma, Cat #F7524-500ML)+1% P/S (Gibco, Cat #15140-122)) by pipetting 54 μL/well in a 384 well plate. Thereafter, 6 μL of a 10× trigger solution was added to all wells, at final concentrations of 2.5, 10 and 3 ng/mL for respectively LPS, TNFα and IL-1β, except for ‘no trigger wells’ where 6 μL culture medium only was added.
After trigger addition, compounds were added with a digital compound dispenser, in a 8-points concentration range, using 3-fold dilution steps and normalizing the final DMSO concentration to 0.2% DMSO in all wells.
After 24 h incubation at 37° C., 5% CO2, 40 μL of supernatant was collected per well and transferred to a new 384 well plate that was then stored at −20° C. until further use.
For the readout, supernatant samples were thawed on ice and 5 μL sample was transferred from each well to a new 384-well plate. 20 μL of Quanti-Luc solution (Quanti-Luc powder (Invivogen, Cat #rep-qlc1) dissolved in 25 mL sterile water as indicated by the manufacturer) was added to each well after which luminescence was immediately measured on an Envision instrument.
To measure the inhibition of LPS/TNFα/IL-1β-induced NFκB-reporter activity, percentage inhibition (PIN) values were calculated for all concentrations tested, compared to controls. […]

[1] = system: sclerodermatous cGvHD in BALB/c (H-2d) mice; assay: Murine sclerodermatous chronic graft-versus host disease (cGvHD); assay type: in vivo; settings: 10 mg/kg b.i.d., day 21 to day 56 post transplantation
Text: 5.10. Murine Sclerodermatous Chronic Graft-Versus Host Disease (cGvHD)
In this cGvHD model, fibrosis is induced in BALB/c (H-2d) mice by allogeneic transplantation of bone marrow cells and splenocytes from B10.D2 (H-2d) donor mice (minor HLA mismatch). The recipient mice develop inflammation-driven dermal and pulmonary fibrosis resembling patients with rapidly progressive diffuse cutaneous systemic sclerosis. (Zerr et al., 2012)
The treatment is provided only after the onset of first clinical symptoms of sclerodermatous cGvHD. […]
The anti-fibrotic effects on skin were analysed by determination of dermal thickness, quantification of lesional collagen and staining for myofibroblasts.
In case of positive effects on skin fibrosis, effects on pulmonary fibrosis were analysed by Ashcroft scoring, by hydroxyproline content and by quantification of the collagen covered area using SirCol staining.
Based on individual animal raw data, the means for each group were determined and percent change from disease controls was calculated. Treatment groups were compared to disease controls using a one-way analysis of variance (1-way ANOVA) with a Dunnett's post-hoc analysis for measured (parametric) data or a Kruskal-Wallis test with a Dunn's post-hoc analysis for scored (non-parametric) data.

For `COc1cn2nc(CCC(C)(C)O)cc2cc1NC(=O)c1cccn(C2CC2)c1=O` [Compound 1, 1-cyclopropyl-N-[2-(3-hydroxy-3-methylbutyl)-6-methoxypyrazolo[1,5-a]pyridin-5-yl]-2-oxopyridine-3-carboxamide], the EC50 (THP-1-Lucia NFκB cells; IL-1β trigger 3 ng/mL, read-out: IL-1β driven NFκB-reporter activity, average pEC50 (converted)) was 100 nM, the EC50 (THP-1-Lucia NFκB cells; LPS trigger 2.5 ng/mL, read-out: LPS driven NFκB-reporter activity, average pEC50 (converted)) was 100 nM and the “TNFα mediated NFκB-reporter activity” value (THP-1-Lucia NFκB cells; TNFα trigger 10 ng/mL, 24 h incubation (IRAK4 independent)) was “no activity was observed”. For the same compound, the “effect on Lung fibrosis (Ashcroft, SirCol)” value [1] was “statistically significant effect” and the “effect on skin fibrosis (Hydroxyproline)” value [1] was “statistically significant effect”.
